# Measurements reported in patent US6525001B1, “Substituted pyrimidine and pyridine herbicides” (Mid-American Commercialization Corporation, priority 1997, dated 2003).
# How the values were obtained:
# Format in all cases: in vivo
# Design in all cases: key: 0 is no effect; 10 is complete control
# rice (Oryza sativa) = test: Test B flood test; settings: for Plant response rating, Rice: Postemergence (flood test species)
# Outline: (§1)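 Plants were grown to the 2-leaf stage before treatment with test chemical, then held in a greenhouse for twelve to sixteen days. Injury was visually rated against untreated controls on a 0–10 scale, where 0 is no effect and 10 is complete control.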
# [1] = test system: bamyardgrass (Echinochloa crus-galli); test: Test B flood test; settings: for Plant response rating, Barnyardgrass: Postemergence (flood test species)
# Outline: as §1
# [2] = test system: smallflower flatsedge (Cyperus difformis); test: Test B flood test; settings: for Plant response rating, S. Flatsedge: Postemergence (flood test species)
# Outline: as §1
# [3] = test system: duck salad (Heteranthera limosa); test: Test B flood test; settings: for Plant response rating, Ducksalad: Postemergence (flood test species)
# Outline: as §1
# soybean (Glycine max) = test: Test B pre-/postemergence
# Outline: (§2)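 Seeds were planted and sprayed preemergence, while plants at 2 to 18 cm (1- to 4-leaf stage) were sprayed postemergence at the same time, with test chemical in a non-phytotoxic solvent mixture containing surfactant. After twelve to sixteen days in a greenhouse, injury was rated visually against untreated controls on a 0–10 scale.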
# rape (Brassica napus) = test: Test B pre-/postemergence
# Outline: as §2
# [4] = test system: barnyardgrass (Echinochloa crus-galli); test: Test A pre-/postemergence; settings: 0 to 10 scale
# Procedure: (§3) Seeds of barnyardgrass (Echinochloa crus-galli), crabgrass (Digitaria spp.), morningglory (Ipomoea spp.), and velvetleaf (Abutilon theophrasti) were planted into a sandy loam soil and treated preemergence by soil drench with test chemicals formulated in a non-phytotoxic solvent mixture which includes a surfactant. At the same time, these crop and weed species were also treated postemergence sprayed to runoff, with test chemicals formulated in the same manner. Plants ranged in height from two to eighteen cm and were in the one to two leaf stage for the postemergence treatment. Treated plants and untreated controls were maintained in a greenhouse for approximately eleven days, after which all treated plants were compared to untreated controls and visually evaluated for injury. Plant response ratings, summarized in Table A, are based on a 0 to 10 scale where 0 is no effect and 10 is complete control. A dash (−) response means no test results.
# [5] = test system: crabgrass (Digitaria spp.); test: Test A pre-/postemergence; settings: 0 to 10 scale
# Procedure: as §3
# [6] = test system: velvetleaf (Abutilon theophrasti); test: Test A pre-/postemergence; settings: 0 to 10 scale
# Procedure: as §3
# [7] = test system: morningglory (Ipomoea spp.); test: Test A pre-/postemergence; settings: 0 to 10 scale
# Procedure: as §3
# [8] = Rate 62 g/ha, Postemergence (flood test)
# [9] = Rate 125 g/ha, Postemergence section (flood test species)
# [10] = Preemergence, Rate 62 g/ha, scale of 0 to 10
# [11] = PRE SOIL DRENCH, Rate 2000 g/ha
# [12] = postemergence SPRAYED TO RUNOFF, Rate 1000 g/ha
Structure (SMILES),Rice plant response rating (rice (Oryza sativa); [8]),Rice plant response rating (rice (Oryza sativa); [9]),"Plant response rating, Rice (rice (Oryza sativa); Rate 250 g/ha)","Plant response rating, Rice (rice (Oryza sativa); Rate 500 g/ha)","Barnyardgrass plant response rating [1, 8]","Barnyardgrass plant response rating [1, 9]","Plant response rating, Barnyardgrass ([1]; Rate 250 g/ha)","Plant response rating, Barnyardgrass ([1]; Rate 500 g/ha)","S. Flatsedge plant response rating [2, 8]","S. Flatsedge plant response rating [2, 9]","Plant response rating, S. Flatsedge ([2]; Rate 250 g/ha)","Plant response rating, S. Flatsedge ([2]; Rate 500 g/ha)","Ducksalad plant response rating [3, 8]","Ducksalad plant response rating [3, 9]","Plant response rating, Ducksalad ([3]; Rate 250 g/ha)","Plant response rating, Ducksalad ([3]; Rate 500 g/ha)","Plant response rating, Soybean (soybean (Glycine max); [10])","Soybean plant response rating (soybean (Glycine max); Rate 62 g/ha, Postemergence)","Soybean plant response rating (soybean (Glycine max); Rate 125 g/ha, Postemergence)","Plant response rating, Soybean (soybean (Glycine max); Rate 125 g/ha, Preemergence)",further results
Cc1cnc(-n2ccc(C(F)(F)F)n2)nc1C(=O)c1cccc(C(F)(F)F)c1 [Compound 59],2,3,4,6,3,4,5,8,7,7,8,9,3,4,6,7,1,6,7,2,"Plant response rating, Soybean (soybean (Glycine max); Rate 250 g/ha, Postemergence): 8; Plant response rating, Soybean (soybean (Glycine max); Rate 250 g/ha, Preemergence): 2; Plant response rating, Soybean (soybean (Glycine max); Rate 500 g/ha, Postemergence): 9; Plant response rating, Soybean (soybean (Glycine max); Rate 500 g/ha, Preemergence): 4; Plant response rating, Rape (rape (Brassica napus); [10]): 5; Rape plant response rating (rape (Brassica napus); Rate 62 g/ha, Postemergence): 6; Rape plant response rating (rape (Brassica napus); Rate 125 g/ha, Postemergence): 7; Plant response rating, Rape (rape (Brassica napus); Rate 125 g/ha, Preemergence): 7; Plant response rating, Rape (rape (Brassica napus); Rate 250 g/ha, Postemergence): 7; Plant response rating, Rape (rape (Brassica napus); Rate 250 g/ha, Preemergence): 7; Plant response rating, Rape (rape (Brassica napus); Rate 500 g/ha, Postemergence): 7; Plant response rating, Rape (rape (Brassica napus); Rate 500 g/ha, Preemergence): 10; Plant response rating, Barnyardgrass [4, 11]: 10; Plant response rating, Barnyardgrass [4, 12]: 9; Plant response rating, Crabgrass [5, 11]: 10; Plant response rating, Crabgrass [5, 12]: 9; Plant response rating, Velvetleaf [6, 11]: 10; Plant response rating, Velvetleaf [6, 12]: 9; Plant response rating, Morningglory [7, 11]: 9; Plant response rating, Morningglory [7, 12]: 8"
Cc1cnc(-n2ccc(C(F)(F)F)n2)nc1C(=O)c1ccc(C(F)(F)F)cc1 [Compound 65],0,0,0,0,0,0,0,0,0,0,0,0,0,0,0,0,0,1,2,0,"Plant response rating, Soybean (soybean (Glycine max); Rate 250 g/ha, Postemergence): 2; Plant response rating, Soybean (soybean (Glycine max); Rate 250 g/ha, Preemergence): 0; Plant response rating, Soybean (soybean (Glycine max); Rate 500 g/ha, Postemergence): 2; Plant response rating, Soybean (soybean (Glycine max); Rate 500 g/ha, Preemergence): 0; Plant response rating, Rape (rape (Brassica napus); [10]): 0; Rape plant response rating (rape (Brassica napus); Rate 62 g/ha, Postemergence): 1; Rape plant response rating (rape (Brassica napus); Rate 125 g/ha, Postemergence): 1; Plant response rating, Rape (rape (Brassica napus); Rate 125 g/ha, Preemergence): 0; Plant response rating, Rape (rape (Brassica napus); Rate 250 g/ha, Postemergence): 2; Plant response rating, Rape (rape (Brassica napus); Rate 250 g/ha, Preemergence): 0; Plant response rating, Rape (rape (Brassica napus); Rate 500 g/ha, Postemergence): 2; Plant response rating, Rape (rape (Brassica napus); Rate 500 g/ha, Preemergence): 0; Plant response rating, Barnyardgrass [4, 11]: 5; Plant response rating, Barnyardgrass [4, 12]: 4; Plant response rating, Crabgrass [5, 11]: 8; Plant response rating, Crabgrass [5, 12]: 5; Plant response rating, Velvetleaf [6, 11]: 4; Plant response rating, Velvetleaf [6, 12]: 5; Plant response rating, Morningglory [7, 11]: 4; Plant response rating, Morningglory [7, 12]: 10"
Cc1cnc(-c2ccc(C(F)(F)F)cc2)nc1C(=O)c1cccc(C(F)(F)F)c1 [Compound 73],5,5,6,3,4,5,6,4,3,3,6,3,1,1,2,3,0,8,9,1,"Plant response rating, Soybean (soybean (Glycine max); Rate 250 g/ha, Postemergence): 9; Plant response rating, Soybean (soybean (Glycine max); Rate 250 g/ha, Preemergence): 1; Plant response rating, Soybean (soybean (Glycine max); Rate 500 g/ha, Postemergence): 6; Plant response rating, Soybean (soybean (Glycine max); Rate 500 g/ha, Preemergence): 2; Plant response rating, Rape (rape (Brassica napus); [10]): 2; Rape plant response rating (rape (Brassica napus); Rate 62 g/ha, Postemergence): 10; Rape plant response rating (rape (Brassica napus); Rate 125 g/ha, Postemergence): 10; Plant response rating, Rape (rape (Brassica napus); Rate 125 g/ha, Preemergence): 6; Plant response rating, Rape (rape (Brassica napus); Rate 250 g/ha, Postemergence): 10; Plant response rating, Rape (rape (Brassica napus); Rate 250 g/ha, Preemergence): 6; Plant response rating, Rape (rape (Brassica napus); Rate 500 g/ha, Postemergence): 10; Plant response rating, Rape (rape (Brassica napus); Rate 500 g/ha, Preemergence): 10; Plant response rating, Barnyardgrass [4, 11]: 9; Plant response rating, Barnyardgrass [4, 12]: 8; Plant response rating, Crabgrass [5, 11]: 10; Plant response rating, Crabgrass [5, 12]: 9; Plant response rating, Velvetleaf [6, 11]: 9; Plant response rating, Velvetleaf [6, 12]: 9; Plant response rating, Morningglory [7, 11]: 9; Plant response rating, Morningglory [7, 12]: 9"
